Assay results published in patent publication US20150176022A1, “HERBICIDE-RESISTANT SUNFLOWER PLANTS, POLYNUCLEOTIDES ENCODING HERBICIDE=RESISTANT ACETO HYDROXY ACID SYNTHASE LARGE SUBUNIT PROTEINS, AND METHODS OF USE” (priority 2013, published 2015).
Where “and” joins values, the source holds several entries; their conditions need not be identical. Identical values can stand only once.

Legend:
Assay type in all cases: in vivo, Helianthus annuus
[1] = tested on: M2 plants of EMS-treated BTK47; test: Selection of imidazolinone-resistant M2 plants (Example 1); conditions: approximately 590,000 M2 plants sprayed at V2-V4 stage; 80 g ai/ha; greenhouse
Description: BTK47, a Helianthus annuus L. breeding line, was chemically mutated as follows. Sixty thousand seeds of the BTK47 line were treated with a solution of ethyl methanesulfonate (EMS) for 15 hours. The treated seeds were then sown under field conditions on Dec. 16, 2002 at Nidera Experimental Station in Venado Tuerto, Santa Fe, Argentina. Approximately 30,000 M1 plants flowered and were covered with bags in order to self-pollinate each plant. Each plant was harvested and threshed by hand. On May 10, 2003 at Nidera Experimental Station in Formosa, 20 M2 seeds from each capitulum were sown under greenhouse conditions. Approximately 590,000 plants were sprayed at V2-V4 stage with imazapyr at a rate of 80 g ai/ha. […] M3 seeds from each of these eight plants were evaluated for their resistance to imazapyr. Out of these eight M3 families, one family (S4897) segregated for herbicide resistance at a ratio of 1 resistant (i.e., conferring tolerance to commercial rates of imidazolinone herbicides): 2 intermediate (i.e., partially resistant): 1 susceptible. Fully fertile resistant plants were self pollinated and harvested in order to propagate the line S4897.

[2] = tested on: sunflower GM1606 (Manteiner Line, A122T); test: Greenhouse whole-plant imazapir dose response (Example 8); conditions: 14 DAT
Description: (§1) A greenhouse study was conducted to quantify and contrast the imazapir sensitivity of the mutants A122T and A205V in different genetic backgrounds at the whole plant level in sunflower. Seeds of the different sunflower lines that were used in this study were obtained under field conditions.
(§2) Seeds were sown in Petri dishes and, after germination, plantlets were transplanted to pots of 10 cm of diameter in a potting media consisting of equal parts of vermiculite, soil and sand. Plants were grown in a greenhouse under natural light conditions supplemented with 400 W sodium halide lamps to provide a 16 hrs daylength. Day/night temperatures were 25 and 20° C., respectively. At the V2 stage 10 plants of each genotype were randomly assigned to each treatment consisting of […] imazapir doses (0, 40, 80, 160, 240, 320, 400 and 480 g ai/ha), and a zero-time biomass determination. Experiment was arranged as a randomized block design with a full factorial (sunflower line×treatment) arrangement of treatments and 10 replications.
(§3) On the day of herbicide application ten plants of each genotype were cut at the cotyledonal node and dried at 60° C. for 48 hrs zero-time for dried weight determination. […] Height was determined as the distance between the cotyledonal node and the apex of each plant. For root biomass determination, each plant was taken from the pot and the potting media was washed out from the roots. Above ground biomass data from each line were converted to biomass accumulation after application by subtracting the appropriate average zero-time biomass from each sample. Dry biomass data were converted to percentages of the untreated control plants within each line to allow direct comparisons between groups.

[3] = tested on: sunflower TH12 (Restorer Line, A122T); test: as above; conditions: 14 DAT
Description: as §1, §2, §3

[4] = tested on: sunflower genotypes carrying the A122T mutation event; test: Greenhouse whole-plant imazapir dose response (Example 8), group mean; conditions: 14 DAT; for biomass, Dif with control (reduction), A122T / plant height, Dif with Control (height reduction), A122T / root dry weight, Dif with control (reduction), A122T: A122T mean; for biomass accumulation (% of untreated), Mean A122T / plant height (% of untreated), Mean A122T / root dry weight (% of untreated), Mean A122T: mean of six A122T genotypes; for Phytotoxicity Index, Mean A122T: mean of three A122T genotypes
Description: as §1, §2, §3

CC(C)C1(C)N=C(c2ncccc2C(=O)O)NC1=O (stereo not drawn) [imazapir, imazapyr]
plants surviving the herbicide treatment [1]: Eight plants survived
biomass accumulation (dry biomass, % of untreated) ([2]; 0.5× (40 g ai/ha)): 100.0%
plant height (% of untreated) ([2]; 0.5× (40 g ai/ha)): 97.0%
root dry weight (% of untreated) ([2]; 0.5× (40 g ai/ha)): 100%
biomass accumulation (dry biomass, % of untreated) ([2]; 1× (80 g ai/ha)): 100.0%
plant height (% of untreated) ([2]; 1× (80 g ai/ha)): 95.7%
root dry weight (% of untreated) ([2]; 1× (80 g ai/ha)): 100.0%
biomass accumulation (dry biomass, % of untreated) ([2]; 2× (160 g ai/ha)): 97.6%
plant height (% of untreated) ([2]; 2× (160 g ai/ha)): 95.2%
root dry weight (% of untreated) ([2]; 2× (160 g ai/ha)): 92.5%
biomass accumulation (dry biomass, % of untreated) ([2]; 3× (240 g ai/ha)): 95.4%
plant height (% of untreated) ([2]; 3× (240 g ai/ha)): 95.7%
root dry weight (% of untreated) ([2]; 3× (240 g ai/ha)): 85.2%
biomass accumulation (dry biomass, % of untreated) ([2]; 4× (320 g ai/ha)): 90.5%
plant height (% of untreated) ([2]; 4× (320 g ai/ha)): 94.1%
root dry weight (% of untreated) ([2]; 4× (320 g ai/ha)): 87.0%
biomass accumulation (dry biomass, % of untreated) ([2]; 5× (400 g ai/ha)): 85.3%
plant height (% of untreated) ([2]; 5× (400 g ai/ha)): 94.3%
root dry weight (% of untreated) ([2]; 5× (400 g ai/ha)): 88.1%
biomass accumulation (dry biomass, % of untreated) ([2]; 6× (480 g ai/ha)): 83.0%
plant height (% of untreated) ([2]; 6× (480 g ai/ha)): 91.4%
root dry weight (% of untreated) ([2]; 6× (480 g ai/ha)): 69.5%
Phytotoxicity Index ([3]; 0.5× (40 g ai/ha)): 0.0
biomass accumulation (dry biomass, % of untreated) ([3]; 0.5× (40 g ai/ha)): 100.0%
plant height (% of untreated) ([3]; 0.5× (40 g ai/ha)): 100.0%
root dry weight (% of untreated) ([3]; 0.5× (40 g ai/ha)): 99.4%
Phytotoxicity Index ([3]; 1× (80 g ai/ha)): 0.0
biomass accumulation (dry biomass, % of untreated) ([3]; 1× (80 g ai/ha)): 99.1%
plant height (% of untreated) ([3]; 1× (80 g ai/ha)): 100.0%
root dry weight (% of untreated) ([3]; 1× (80 g ai/ha)): 100%
Phytotoxicity Index ([3]; 2× (160 g ai/ha)): 0.0
biomass accumulation (dry biomass, % of untreated) ([3]; 2× (160 g ai/ha)): 97.0%
plant height (% of untreated) ([3]; 2× (160 g ai/ha)): 101.8%
root dry weight (% of untreated) ([3]; 2× (160 g ai/ha)): 100%
Phytotoxicity Index ([3]; 3× (240 g ai/ha)): 0.0
biomass accumulation (dry biomass, % of untreated) ([3]; 3× (240 g ai/ha)): 96.1%
plant height (% of untreated) ([3]; 3× (240 g ai/ha)): 97.0%
root dry weight (% of untreated) ([3]; 3× (240 g ai/ha)): 100.0%
Phytotoxicity Index ([3]; 4× (320 g ai/ha)): 0.0
biomass accumulation (dry biomass, % of untreated) ([3]; 4× (320 g ai/ha)): 84.3%
plant height (% of untreated) ([3]; 4× (320 g ai/ha)): 92.1%
root dry weight (% of untreated) ([3]; 4× (320 g ai/ha)): 74.5%
Phytotoxicity Index ([3]; 5× (400 g ai/ha)): 0.0
biomass accumulation (dry biomass, % of untreated) ([3]; 5× (400 g ai/ha)): 77.5%
plant height (% of untreated) ([3]; 5× (400 g ai/ha)): 84.8%
root dry weight (% of untreated) ([3]; 5× (400 g ai/ha)): 65.0%
Phytotoxicity Index ([3]; 6× (480 g ai/ha)): 0.5
biomass accumulation (dry biomass, % of untreated) ([3]; 6× (480 g ai/ha)): 70.7%
plant height (% of untreated) ([3]; 6× (480 g ai/ha)): 79.8%
root dry weight (% of untreated) ([3]; 6× (480 g ai/ha)): 57.8%
biomass, Dif with control (reduction), A122T ([4]; 0.5× (40 g ai/ha)): 1.1%
plant height, Dif with Control (height reduction), A122T ([4]; 0.5× (40 g ai/ha)): 0.6%
root dry weight, Dif with control (reduction), A122T ([4]; 0.5× (40 g ai/ha)): 0.1%
biomass, Dif with control (reduction), A122T ([4]; 1× (80 g ai/ha)): 3.2%
plant height, Dif with Control (height reduction), A122T ([4]; 1× (80 g ai/ha)): 1.4%
root dry weight, Dif with control (reduction), A122T ([4]; 1× (80 g ai/ha)): 2.5%
biomass, Dif with control (reduction), A122T ([4]; 2× (160 g ai/ha)): 5.1%
plant height, Dif with Control (height reduction), A122T ([4]; 2× (160 g ai/ha)): 2.7%
root dry weight, Dif with control (reduction), A122T ([4]; 2× (160 g ai/ha)): 5.9%
biomass, Dif with control (reduction), A122T ([4]; 3× (240 g ai/ha)): 7.2%
plant height, Dif with Control (height reduction), A122T ([4]; 3× (240 g ai/ha)): 4.4%
root dry weight, Dif with control (reduction), A122T ([4]; 3× (240 g ai/ha)): 10.6%
biomass, Dif with control (reduction), A122T ([4]; 4× (320 g ai/ha)): 12.2%
plant height, Dif with Control (height reduction), A122T ([4]; 4× (320 g ai/ha)): 6.3%
root dry weight, Dif with control (reduction), A122T ([4]; 4× (320 g ai/ha)): 18.6%
biomass, Dif with control (reduction), A122T ([4]; 5× (400 g ai/ha)): 20.7%
plant height, Dif with Control (height reduction), A122T ([4]; 5× (400 g ai/ha)): 10.2%
root dry weight, Dif with control (reduction), A122T ([4]; 5× (400 g ai/ha)): 21.3%
biomass, Dif with control (reduction), A122T ([4]; 6× (480 g ai/ha)): 25% and 25.4%
plant height, Dif with Control (height reduction), A122T ([4]; 6× (480 g ai/ha)): 15.8%
root dry weight, Dif with control (reduction), A122T ([4]; 6× (480 g ai/ha)): 38.3%
biomass accumulation (% of untreated), Mean A122T ([4]; 0.5× (40 g ai/ha)): 98.9%
plant height (% of untreated), Mean A122T ([4]; 0.5× (40 g ai/ha)): 99.4%
root dry weight (% of untreated), Mean A122T ([4]; 0.5× (40 g ai/ha)): 99.9%
biomass accumulation (% of untreated), Mean A122T ([4]; 1× (80 g ai/ha)): 96.8%
plant height (% of untreated), Mean A122T ([4]; 1× (80 g ai/ha)): 98.6%
root dry weight (% of untreated), Mean A122T ([4]; 1× (80 g ai/ha)): 97.5%
biomass accumulation (% of untreated), Mean A122T ([4]; 2× (160 g ai/ha)): 94.9%
plant height (% of untreated), Mean A122T ([4]; 2× (160 g ai/ha)): 97.3%
root dry weight (% of untreated), Mean A122T ([4]; 2× (160 g ai/ha)): 94.1%
biomass accumulation (% of untreated), Mean A122T ([4]; 3× (240 g ai/ha)): 92.8%
plant height (% of untreated), Mean A122T ([4]; 3× (240 g ai/ha)): 95.6%
root dry weight (% of untreated), Mean A122T ([4]; 3× (240 g ai/ha)): 89.4%
biomass accumulation (% of untreated), Mean A122T ([4]; 4× (320 g ai/ha)): 87.8%
plant height (% of untreated), Mean A122T ([4]; 4× (320 g ai/ha)): 93.7%
root dry weight (% of untreated), Mean A122T ([4]; 4× (320 g ai/ha)): 81.4%
biomass accumulation (% of untreated), Mean A122T ([4]; 5× (400 g ai/ha)): 79.3%
plant height (% of untreated), Mean A122T ([4]; 5× (400 g ai/ha)): 89.8%
root dry weight (% of untreated), Mean A122T ([4]; 5× (400 g ai/ha)): 78.7%
biomass accumulation (% of untreated), Mean A122T ([4]; 6× (480 g ai/ha)): 74.6%
plant height (% of untreated), Mean A122T ([4]; 6× (480 g ai/ha)): 84.2%
root dry weight (% of untreated), Mean A122T ([4]; 6× (480 g ai/ha)): 61.7%
Phytotoxicity Index, Mean A122T ([4]; 0.5× (40 g ai/ha)): 0.3
Phytotoxicity Index, Mean A122T ([4]; 1× (80 g ai/ha)): 0.3
Phytotoxicity Index, Mean A122T ([4]; 2× (160 g ai/ha)): 0.3
Phytotoxicity Index, Mean A122T ([4]; 3× (240 g ai/ha)): 0.3
Phytotoxicity Index, Mean A122T ([4]; 4× (320 g ai/ha)): 0.5
Phytotoxicity Index, Mean A122T ([4]; 5× (400 g ai/ha)): 0.8
Phytotoxicity Index, Mean A122T ([4]; 6× (480 g ai/ha)): 1.2
